ChEMBL document CHEMBL5230081, “Battle against Vancomycin-Resistant Bacteria: Recent Developments in Chemical Strategies” (J Med Chem, 2019)
pKd: −log10 of the molar value. In brackets after ≈: the same amount, converted by molar mass.

How the values were obtained:
Enterococcus faecium [1] = assay: Antimicrobial activity against Vancomycin-resistant (Van A) Enterococcus faecium ATCC 51559 assessed as reduction in microbial growth; assay type: functional
Staphylococcus aureus [2] = assay: Antimicrobial activity against Vancomycin-resistant Staphylococcus aureus incubated for 20 hrs by broth dilution method; assay type: functional
[3] = Binding affinity to D-Ala-D-Ala assessed as dissociation constant
[4] = Binding affinity to D-Ala-D-Lac assessed as dissociation constant
Enterococcus faecium [5] = assay: Antibacterial activity against Enterococcus faecium SR7917 (VRE); assay type: functional
Enterococcus faecalis [6] = assay: Antimicrobial activity against Vancomycin - resistant Enterococcus faecalis SR7914 assessed as inhibition of bacterial growth; assay type: functional
Enterococcus faecium [7] = assay: Antibacterial activity against Vancomycin-resistant Enterococcus faecium assessed as reduction in bacterial growth measured after 48 hrs by microbroth dilution method; assay type: functional
Escherichia coli [8] = assay: Antimicrobial activity against Escherichia coli ATCC 8739 assessed as microbial growth inhibition in presence of Vancomycin by agar dilution method; assay type: functional
Acinetobacter baumannii [9] = assay: Antimicrobial activity against Acinetobacter baumannii ATCC 17978 assessed as microbial growth inhibition; assay type: functional
Acinetobacter baumannii [10] = assay: Antimicrobial activity against Acinetobacter baumannii assessed as microbial growth inhibition; assay type: functional
Pseudomonas aeruginosa [11] = assay: Antibacterial activity against Pseudomonas aeruginosa R590 assessed as reduction in bacterial growth in presence of vancomycin by broth microdilution method; assay type: functional
Acinetobacter baumannii [12] = assay: Antibacterial activity against Acinetobacter baumannii R4942 assessed as reduction in bacterial growth by broth microdilution method; assay type: functional
Acinetobacter baumannii [13] = assay: Antibacterial activity against Acinetobacter baumannii R4942 assessed as reduction in bacterial growth in presence of telavancin by broth microdilution method; assay type: functional
Escherichia coli [14] = assay: Antibacterial activity against Escherichia coli ATCC 25922 assessed as bacterial growth inhibition measured after 48 hrs in presence of vancomycin; assay type: functional
Escherichia coli [15] = assay: Antibacterial activity against Escherichia coli assessed as bacterial growth inhibition measured after 48 hrs in presence of vancomycin; assay type: functional
Klebsiella pneumoniae = assay: Antibacterial activity against Klebsiella pneumoniae R3949 assessed as reduction in bacterial growth in presence of Meropenem by broth microdilution method; assay type: functional
Acinetobacter baumannii [16] = assay: Antibacterial activity against Acinetobacter baumannii R4942 assessed as reduction in bacterial growth in presence of teicoplanin by broth microdilution method; assay type: functional
Enterococcus faecium [17] = assay: Antimicrobial activity against Vancomycin-resistant Enterococcus faecium ATCC 51559 assessed as inhibition in microbial growth measured after 48 hrs by microbroth dilution method; assay type: functional
Pseudomonas aeruginosa [18] = assay: Antibacterial activity against Pseudomonas aeruginosa R590 assessed as reduction in bacterial growth by broth microdilution method; assay type: functional
Enterobacter cloacae = assay: Antibacterial activity against Enterobacter cloacae NDM-1 assessed as reduction in bacterial growth by broth microdilution method; assay type: functional
Escherichia coli [19] = assay: Synergistic antibacterial activity against multidrug-resistant Escherichia coli assessed as reduction in bacterial viability after 12 hrs in presence of 1/2 MIC of nitrofurantoin; assay type: functional
Pseudomonas aeruginosa [20] = assay: Synergistic antibacterial activity against multidrug-resistant Pseudomonas aeruginosa ATCC 27853 assessed as reduction in bacterial viability after 12 hrs in presence of 1/2 MIC of vancomycin; assay type: functional
Enterococcus faecalis [21] = assay: Antimicrobial activity against Vancomycin - resistant Enterococcus faecalis assessed as inhibition of bacterial growth; assay type: functional
Escherichia coli [22] = assay: Synergistic antibacterial activity against Escherichia coli in presence of nitrofurantoin; assay type: functional
Staphylococcus aureus [23] = assay: Antibacterial activity against Staphylococcus aureus assessed as biofilm formation; assay type: functional
Escherichia coli [24] = assay: Synergistic antibacterial activity against Escherichia coli in presence of Trimethoprim; assay type: functional
Pseudomonas aeruginosa [25] = assay: Antibacterial activity against Pseudomonas aeruginosa ATCC 27853 assessed as bacterial growth inhibition measured after 24 hrs by microbroth dilution method; assay type: functional
Escherichia coli [26] = assay: Synergistic antibacterial activity against multidrug-resistant Escherichia coli assessed as reduction in bacterial viability after 12 hrs in presence of 1/2 MIC of trimethoprim; assay type: functional
Enterococcus faecalis [27] = assay: Antibiofilm activity against Enterococcus faecalis ATCC 47077 biofilms assessed as biofilm eradication; assay type: functional
Staphylococcus aureus [28] = assay: Antimicrobial activity against vancomycin-resistant Staphylococcus aureus assessed as microbial growth reduction; assay type: functional
Staphylococcus aureus [29] = assay: Antibacterial activity against Vancomycin-intermediate Staphylococcus aureus NRS1 assessed as bacterial growth inhibition; assay type: functional
Enterococcus faecium [30] = assay: Antibacterial activity against Vancomycin-resistant Enterococcus faecium assessed as colony forming unit at 20 times MIC concentration measured after 21 days by time kill assay; assay type: functional; settings: time 21 day
Pseudomonas aeruginosa [31] = assay: Antibacterial activity against multi drug resistant Pseudomonas aeruginosa assessed as reduction in microbial growth after 16 to 18 hrs by microbroth dilution method; assay type: functional; settings: time 16-18 hrs
Enterococcus faecium [32] = assay: Antimicrobial activity against Vancomycin-resistant (Van S) Enterococcus faecium ATCC 51559 assessed as reduction in microbial growth; assay type: functional
Pseudomonas aeruginosa [33] = assay: Antibacterial activity against colistin-resistant Pseudomonas aeruginosa PA101243 assessed as reduction in bacterial growth after 18 hrs by microbroth dilution method; assay type: functional
[34] = Enterococcus faecium, ATCC 51559, read-out: MIC

CN[C@H](CC(C)C)C(=O)N[C@H]1C(=O)N[C@@H](CC(N)=O)C(=O)N[C@H]2C(=O)N[C@H]3C(=O)N[C@H](C(=O)N[C@H](C(=O)NCCSSCCNC(=O)[C@H]4NC(=O)[C@H]5NC(=O)[C@H](NC(=O)[C@@H]6NC(=O)[C@H](CC(N)=O)NC(=O)[C@H](NC(=O)[C@@H](CC(C)C)NC)[C@H](O)c7ccc(c(Cl)c7)Oc7cc6cc(c7O[C@@H]6O[C@H](CO)[C@@H](O)[C@H](O)[C@H]6O[C@H]6C[C@](C)(N)[C@H](O)[C@H](C)O6)Oc6ccc(cc6Cl)[C@H]5O)c5ccc(O)c(c5)-c5c(O)cc(O)cc54)c4cc(O)cc(O)c4-c4cc3ccc4O)[C@H](O)c3ccc(c(Cl)c3)Oc3cc2cc(c3O[C@@H]2O[C@H](CO)[C@@H](O)[C@H](O)[C@H]2O[C@H]2C[C@](C)(N)[C@H](O)[C@H](C)O2)Oc2ccc(cc2Cl)[C@H]1O
MIC (Enterococcus faecium [1]; [34]): 11 µM
MIC (Staphylococcus aureus [2]): 11 µM
pKd [3]: 5.72
pKd [4]: 3.36

CCCCCCCCCCCCCCCCC[C@H]1CN(C)[C@@H]([C@H](O[C@@H]2O[C@H](CN)[C@@H](O)[C@H]2O)[C@H]2O[C@@H](n3ccc(=O)[nH]c3=O)[C@H](O)[C@@H]2O)C(=O)N(C)[C@@H]1C(=O)O
MIC (Enterococcus faecium [5]): 8 µg/mL (≈ 10 µM)
MIC (Enterococcus faecalis [6]): 8 µg/mL (≈ 10 µM)

H-ILRWPWWPWRRK-NH2 [OMIGANAN]
MIC (Enterococcus faecium [7]): 2 µg/mL

CCCCCCCCCCCCCC[N+](C)(C)CCCNC(=O)[C@H]1NC(=O)[C@H]2NC(=O)[C@H](NC(=O)[C@@H]3NC(=O)[C@H](CC(N)=O)NC(=O)[C@H](NC(=O)[C@@H](CC(C)C)NC)[C@H](O)c4ccc(c(Cl)c4)Oc4cc3cc(c4O[C@@H]3O[C@H](CO)[C@@H](O)[C@H](O)[C@H]3O[C@H]3C[C@](C)(N)[C@H](O)[C@H](C)O3)Oc3ccc(cc3Cl)[C@H]2O)c2ccc(O)c(c2)-c2c(O)cc(O)cc21
MIC (Escherichia coli [8]): 6 µg/mL
MIC (Acinetobacter baumannii [9]): ≤ 2 µg/mL
MIC (Acinetobacter baumannii [10]): 3 µM
MIC (Pseudomonas aeruginosa [11]): 0.5 µg/mL
MIC (Acinetobacter baumannii [12]): 3 µM
MIC (Acinetobacter baumannii [13]): < 1 µg/mL
MIC (Escherichia coli [14]): 12.5 µg/mL
MIC (Escherichia coli [15]): 6.25 µg/mL
MIC (Klebsiella pneumoniae): 3.15 µg/mL
MIC (Acinetobacter baumannii [16]): ≤ 2 µg/mL
MIC (Enterococcus faecium [17]): 1.2 µM
MIC (Pseudomonas aeruginosa [18]): 6.1 µM
MIC (Enterobacter cloacae): 12.5 µM

CN[C@H](CC(C)C)C(=O)N[C@H]1C(=O)N[C@@H](CC(N)=O)C(=O)N[C@H]2C(=O)N[C@H]3C(=O)N[C@H](C(=O)N[C@H](C(=O)O)c4cc(O)cc(O)c4-c4cc3ccc4O)[C@H](O)c3ccc(c(Cl)c3)Oc3cc2cc(c3O[C@@H]2O[C@H](CO)[C@@H](O)[C@H](O)[C@H]2O[C@H]2C[C@](C)(N)[C@H](O)[C@H](C)O2)Oc2ccc(cc2Cl)[C@H]1O [VANCOMYCIN]
MIC (Escherichia coli [19]): 12.5 µg/mL
fractional inhibitory concentration index (FICI) (Pseudomonas aeruginosa [20]): <0.5
MIC (Enterococcus faecalis [21]): 31 µg/mL (≈ 21.4 µM)
MIC (Escherichia coli [22]): 6.25 µg/mL
MBEC (Staphylococcus aureus [23]): >512 µg/mL
MIC (Escherichia coli [24]): 0.2 µg/mL
MIC (Pseudomonas aeruginosa [25]): 0.5 µg/mL (≈ 0.345 µM)
MIC (Escherichia coli [26]): 3.5 µg/mL
MBEC (Enterococcus faecalis [27]): >512 µg/mL

CCCCCCCCCCC(=O)N[C@@H](CCCCN)C(=O)N[C@@H](CCCCN)C(=O)NC(CCCCNC(=O)[C@H]1NC(=O)[C@H]2NC(=O)[C@H](NC(=O)[C@@H]3NC(=O)[C@H](CC(N)=O)NC(=O)[C@H](NC(=O)[C@@H](CC(C)C)NC)[C@H](O)c4ccc(c(Cl)c4)Oc4cc3cc(c4O[C@@H]3O[C@H](CO)[C@@H](O)[C@H](O)[C@H]3O[C@H]3C[C@](C)(N)[C@H](O)[C@H](C)O3)Oc3ccc(cc3Cl)[C@H]2O)c2ccc(O)c(c2)-c2c(O)cc(O)cc21)C(=O)O (stereo not given in full)
MIC (Enterococcus faecium [1]; [34]): 6 µg/mL
MIC (Staphylococcus aureus [28]): 0.05 µg/mL (≈ 0.025 µM)
MIC (Staphylococcus aureus [2]): 1 µg/mL
MIC (Staphylococcus aureus [29]): 0.5 µg/mL

CN[C@H](CC(C)C)C(=O)N[C@H]1C(=O)N[C@@H](CC(N)=O)C(=O)N[C@H]2C(=O)N[C@H]3C(=O)N[C@H](C(=O)N[C@H](C(=O)NCCCCCCN(Cc4ccccn4)Cc4ccccn4)c4cc(O)cc(O)c4-c4cc3ccc4O)[C@H](O)c3ccc(c(Cl)c3)Oc3cc2cc(c3O[C@@H]2O[C@H](CO)[C@@H](O)[C@H](O)[C@H]2O[C@H]2C[C@](C)(N)[C@H](O)[C@H](C)O2)Oc2ccc(cc2Cl)[C@H]1O
MIC (Enterococcus faecium [1]): 1.5 µM
MIC (Enterococcus faecium [1]; [34]): 2 µM
Activity (Enterococcus faecium [30]): 5 log10/ml
MIC (Staphylococcus aureus [29]): 1 µM

NC[C@H]1O[C@H](O[C@H]2[C@H](O)[C@@H](O[C@H]3O[C@H](CO)[C@@H](O)[C@H](N)[C@H]3O)[C@H](N)C[C@@H]2N)[C@H](N)C[C@@H]1O [TOBRAMYCIN]
MIC (Pseudomonas aeruginosa [31]): 0.7 µM

CCCCCCCCCC(=O)O[C@@H]1c2ccc(c(Cl)c2)Oc2cc3cc(c2O[C@@H]2O[C@H](CO)[C@@H](O)[C@H](O)[C@H]2O[C@H]2C[C@](C)(N)[C@H](O)[C@H](C)O2)Oc2ccc(cc2Cl)[C@@H](O)[C@@H](NC(=O)[C@@H](CC(C)C)NC)C(=O)N[C@@H](CC(N)=O)C(=O)N[C@H]3C(=O)N[C@H]2C(=O)N[C@@H]1C(=O)N[C@H](C(=O)O)c1ccccc1-c1cccc2c1
MIC (Enterococcus faecium [32]): 0.25 µg/mL

C[C@@H](O)[C@H]1C(=O)N2C(C(=O)O)=C(S[C@@H]3CN[C@H](C(=O)N(C)C)C3)[C@H](C)[C@H]12 [MEROPENEM]
MIC (Pseudomonas aeruginosa [33]): < 1 µg/mL
